Data taken from article PMC3097154, “Antiviral activity of α-helical stapled peptides designed from the HIV-1 capsid dimerization domain” (Retrovirology, 2011).
Read-outs that look alike come from different tables or passages of the source. Positions of bridges follow the written chain, without caps; N, C: chain ends. Non-standard residues stand in square brackets, D forms with d. Residues, ends and D or L forms follow the SMILES beside them. S5 = C=CCCC[C@](C)(N)C(=O)O

Assays:
[1] = system: wild type CTD (wtCTD) of HIV-1 CA; test: ITC dilution of CTD dimers in presence of peptide; type: binding; conditions: for Kdiss (apparent CTD dimer dissociation constant): ITC dilution, 30°C; for 200 μM CTD (fm), estimated fraction of CTD occurring as monomers: calculated from monomer-dimer equilibrium expressions
Experimental: The effect of the dimer interface peptide, NYAD-203, a soluble analog of NYAD-201, on dimer dissociation was first examined by isothermal titration calorimetry (ITC). Dilution of CTD by sequential ITC injections into buffer, pH 7.3, 30°;C gave a series of endothermic heat pulses (Figure 4) consistent with dissociation of protein oligomers modeled as dimers, with dimer dissociation constant (Kdiss) ~15 μM and dissociation enthalpy (ΔHdiss) of 10.7 kcal mole^-1. […] For such a mechanism, the apparent dimer dissociation constant should depend on the free peptide (inhibitor) concentration ([I]) and binding affinity (KI) as follows: [drawing 1]
or an approximate form that might be valid at high inhibitor concentrations: [drawing 2]
where Ci is the total peptide inhibitor concentration in the mixture. This analysis is, however, further complicated by apparent self-association of the peptide (see NMR section) that reduces the availability of free monomer (lower [I]) at higher concentrations and thus leads to underestimation of peptide binding affinities and a concentration dependence of apparent Ki. However, by use of the above equations and extrapolation to low concentrations, we obtain a value of Ki = 40 (±5) μM for the binding of stapled peptide (NYAD-203) monomer to CTD under these conditions.
The influence of the peptides on dimer dissociation of wild type CTD (wtCTD) was investigated by ITC (MicroCal VP-ITC) following established protocols. Proteins were exhaustively dialyzed against the 25 mM sodium phosphate buffer (pH 7.3) prior to experimental measurements. In a typical experiment, the ITC injection syringe was loaded with 250 μM protein, dissolved in dialysis buffer or dialysis buffer/peptide mixture and the calorimetric cell (ca. 1.4 ml active volume) initially contained only the identical buffer mixture. Typically titrations consisted of 28 injections of 10 μl, with 240-s equilibration between injections. The thermodynamic parameters were obtained and data were analyzed using MicroCal Origin 7.0 software, using an updated and corrected (June 2008) version of the dissociation analysis procedure, validated by comparison with earlier analysis methods.

[2] = system: monomeric CTD mutant (W184A/M185A); test: Binding to monomeric CTD mutant; parameters: species or system HIV-1; conditions: data not shown
[3] = NMR of isolated peptide (self-association); type: physicochemical; conditions: 20 mM phosphate buffer pH 7.0, 288 K
HIV-1 CA = conditions: 25°C, pH 7.3, ideal single-species model, CA alone 41,213
Experimental: In the second set of experiments, the possible effect of NYAD-203 on dimer stability was analyzed by sedimentation equilibrium.
Sedimentation equilibrium experiments were performed using a ProteomeLab XL-A analytical ultracentrifuge using 6-channel centerpieces in an An-60Ti rotor at 25°C. Protein samples were dialyzed into 50 mM sodium phosphate buffer (pH 7.3). […] Radial scans were measured at 280 nm. The data were fitted to an ideal single-species model as well as a rapid monomer-dimer equilibrium using the Beckman XL-A/XL-I Data Analysis Software (Version 6.03).

[4] = system: GFP-Vpr-labeled HIV-1 virions in SupT1 cells; test: Virus entry, GFP-Vpr-labeled HIV-1 virions, FACS; type: cell-based; conditions: 111 nM

## CSCC[C@@H]1NC(=O)[C@H](Cc2c[nH]c3ccccc23)NC(=O)[C@@](C)(NC(=O)[C@H](CCCCN)NC(=O)[C@@H](NC(=O)[C@H](C)NC(=O)[C@H](CCC(N)=O)NC(=O)[C@H](C)N)C(C)C)CCC/C=C\CCC[C@@](C)(C(=O)N[C@H](C(=O)N[C@@H](CC(C)C)C(=O)N[C@@H](CC(C)C)C(=O)N[C@H](C(=O)N[C@@H](C)C(=O)N[C@@H](CCCCN)C(=O)N[C@@H](CCCCN)C(=O)N[C@@H](CCCCN)C(=O)O)C(C)C)[C@@H](C)O)NC(=O)[C@H]([C@@H](C)O)NC1=O [NYAD-203] (H-AQAVK[S5]WMT[S5]TLLVAKKK-OH; staple (Z) 6-10; N-terminus and C-terminus assumed)
[1]; CI 50 μM NYAD-203, 25 mM sodium phosphate pH 7.3, 250 μM CTD in syringe
  Kdiss (apparent CTD dimer dissociation constant): 31.2 (±6.6) μM
[1]; CI 50 μM NYAD-203
  200 μM CTD (fm), estimated fraction of CTD occurring as monomers: 24%
[1]; CI 200 μM NYAD-203, pH 7.3
  Kdiss (apparent CTD dimer dissociation constant): 33.2 (±3.9) μM
[1]; CI 200 μM NYAD-203
  200 μM CTD (fm), estimated fraction of CTD occurring as monomers: 25%
[1]; CI 350 μM NYAD-203, pH 7.3
  Kdiss (apparent CTD dimer dissociation constant): 40.5 (±6.2) μM
[1]; CI 350 μM NYAD-203
  200 μM CTD (fm), estimated fraction of CTD occurring as monomers: 27%
[2]
  affinity for monomeric CTD mutant (W184A/M185A): no measurable affinity
[3]
  self-association of isolated peptide: self-associates to form polymeric species
HIV-1 CA; CA:NYAD-203 = 1:1 (30 μM CA, 30 μM peptide)
  apparent molecular weight of CA: 30,343 Daltons
HIV-1 CA; CA:NYAD-203 = 1:3 (30 μM CA, 90 μM peptide)
  apparent molecular weight of CA: 27,338 Daltons

## IRQGPKEPFRDYVDR [NYAD-401]
[1]; unstapled control peptide
  ITC heat effect (binding): no apparent heat effect

## enfuvirtide [T-20]
[4]
  inhibition of viral entry: substantially inhibited viral entry
